# Measured values taken from patent publication US20090227489A1, “STAT3 Agonists and Antagonists and Therapeutic Uses Thereof” (Johns Hopkins University, priority 2000, published 2009).
# System: B16 cells
# Assay: Macrophage-mediated antitumor cytotoxicity (3H-TdR incorporation)
# Format: cell-based, murine
# Conditions: added to macrophages before supernatant; NMA 0.5 mM, catalase 500 U/ml
# Description: Macrophages (˜1×10^5) were incubated in 50% supernatants from Stat3β-transfected (S-Stat3β) or GFP-vector transfected (S-GFP) B16 cells for 6 h. The supernatants were replaced by normal complete medium and wild-type B16 cells (1×10^4) were added.
# Macrophage-mediated antitumor cytotoxicity. Antitumor cytotoxic activity of macrophages against B16 cells was determined by inhibition of DNA synthesis. Briefly, peritoneal macrophages (1×10^5) were incubated in 50% supernatants derived from either wild type, pIRES-Stat3β or pIRES-GFP transfected, or UV-irradiated B16 cells for 6 h. After replacing the supernatants with normal complete medium, B16 cells (1.0×10^4/well) were added and co-cultured for 48 h with and without peritoneal macrophages. For some experiments, NOS inhibitor, N-monomethyl-L-arginine (NMA) (0.5 mM, Sigma) or H202 quencher, catalase (500 U/ml, Boehringer Mannheim, Indianapolis, Ind.) were added to macrophages before adding supernatant from Stat3β-transfected B16 cells. The co-cultured cells were pulsed with 3H-thymidine (3H-TdR) (0.25 μCi/well) during the last 6 h of incubation to estimate DNA synthesis. 3H-TdR incorporation was determined using a liquid scintillation β-counter (Pharmacia Wallac, Finland).
# 3H-thymidine incorporation to estimate DNA synthesis and cell proliferation was performed.
substance,measurement,value
catalase,effect on macrophage-mediated cytostasis induced by Stat3β supernatant,does not influence macrophage cytotoxic effects against B16 cells
